US20240374578A1, “USE OF MEDICINE FOR REDUCING IRON CONTENT IN BRAIN IN PREPARATION OF DRUG FOR TREATING AND/OR PREVENTING NEUROPSYCHIATRIC DISEASES” (SOOCHOW UNIVERSITY, priority 2022, published 2024)

System: morphine addiction in mice
Assay: Morphine conditioned place preference scoring of mice
Assay type: in vivo, C57BL/6J mice
Details: 6 h before morphine 20 mg/kg/day i.p., 7 days, vs morphine group

| SMILES | preference score on morphine-paired side (Deferiprone 13 mg/mL, 1 μL into dorsal hippocampus, FIG. 5) | preference score on morphine-paired side (Vadadustat 10 mg/kg/day i.p., FIG. 4) |
| --- | --- | --- |
| Cc1c(O)c(=O)ccn1C [Deferiprone, 3-hydroxy-1,2-dimethyl-4-(1H)-pyridone] | significantly reduced |  |
| O=C(O)CNC(=O)c1ncc(-c2cccc(Cl)c2)cc1O [Vadadustat] |  | significantly reduced |
